Experimental data: PMC11279404, “Discovery of 1H-benzo[d]imidazole-(halogenated)Benzylidenebenzohydrazide Hybrids as Potential Multi-Kinase Inhibitors” (Pharmaceuticals, 2024)

Experiments:
Bax = assay: Apoptotic protein level by ELISA, Bax; format: cell-based, human; conditions: HepG2 cells
Method: (§1) To further elucidate the mechanism by which compound 6i induces cell death, the expression levels of key apoptotic proteins were assessed in the HepG2 cell line. […] Specifically, the levels of the pro-apoptotic proteins caspase-3 and Bax were markedly higher in the compound 6i-treated group compared with the control. […] Additional studies are warranted to elucidate the detailed molecular mechanisms underlying the apoptosis-inducing effects of compound 6i and to assess its therapeutic potential in relevant in vivo models.
(§2) Apoptotic protein levels for compound 6i were determined using an ELISA technique for caspase-3, BAX, and Bcl-2, applying a previously reported method.

Bcl-2 = assay: Apoptotic protein level by ELISA, Bcl-2; format: cell-based, human; conditions: HepG2 cells, ELISA; control 15.668 ± 0.53; mean ± SD of triplicate
caspase-3 = assay: Apoptotic protein level by ELISA, caspase-3; format: cell-based, human; conditions: HepG2 cells
Method: as §1, §2

[1] = test system: HepG2 (hepatocellular carcinoma cell line); assay: MTT in vitro cytotoxicity, HepG2; format: cell-based, human; conditions: for IC50: Homo sapiens, HepG2, MTT, mean ± SD of triplicate; for SI (Selectivity Index) HepG2: IC50 of WI-38 / IC50 of HepG2
[2] = test system: HCT-116 (human colon cancer cell line); assay: MTT in vitro cytotoxicity, HCT-116; format: cell-based; conditions: for IC50: Homo sapiens, HCT-116, MTT, mean ± SD of triplicate; for SI (Selectivity Index) HCT-116: IC50 of WI-38 / IC50 of HCT-116
[3] = test system: MCF-7 (mammary gland breast cancer cell line); assay: MTT in vitro cytotoxicity, MCF-7; format: cell-based, human; conditions: for IC50: Homo sapiens, MCF7, MTT, mean ± SD of triplicate; for SI (Selectivity Index) MCF-7: IC50 of WI-38 / IC50 of MCF-7
[4] = MTT in vitro cytotoxicity, normal WI-38; format: cell-based; conditions: human, WI-38 normal lung fibroblast cells, normal cell line, mean ± SD of triplicate
[5] = test system: cancer cell lines (HCT-116, HepG2, MCF-7); assay: MTT in vitro cytotoxicity, summary across the cancer cell line panel; format: cell-based; conditions: Homo sapiens; summary over HCT-116, HepG2, MCF-7; read-out: IC50 values across the tested cancer cell lines
Method: The cytotoxic activities of compounds 6a-l were assessed using a standard MTT method, which was performed across three different cancer cell line models, namely human colon cancer (HCT-116), hepatocellular carcinoma (HepG2), mammary gland cancer (MCF-7), and normal (WI-38) cell lines. […] […]. Substitution at the 4-position, as in the case of compounds 6d, 6g, and 6j, also seems beneficial, with fluoro (6j) showing the best results. […]. Overall, the cytotoxicity data provide valuable insights into the structure–activity relationships of the synthesized compounds and can guide further optimization efforts to develop potential anticancer agents with improved potency and selectivity.
. The SI values represent the ratio of the IC50 values for the normal WI-38 cell line compared with the respective cancer cell lines, with higher SI values indicating greater selectivity for the cancer cells over normal cells. […]. The cytotoxic potential of compounds 6a-l was evaluated against a panel of cancer cell lines, including HCT-116, HepG2, and MCF-7, as well as a normal cell line, WI-38, using the reported methodology. The cell lines utilized in this study were obtained from the American Type Culture Collection (ATCC) through the Holding Company for Biological Products and Vaccines (VACSERA) in Cairo, Egypt. These included: 1. A human colon cancer cell line (HCT-116); 2. Hepatocellular carcinoma (HepG2)—a liver cancer cell line; 3. Mammary gland breast cancer (MCF-7); and 4. A human lung fibroblast (WI-38)—a normal cell line.

AURKC = target: T1, AURKC (Homo sapiens, UniProt Q9UQB9); assay: In vitro protein kinase inhibition, AURKC
T1 sequence (Q9UQB9 1-309): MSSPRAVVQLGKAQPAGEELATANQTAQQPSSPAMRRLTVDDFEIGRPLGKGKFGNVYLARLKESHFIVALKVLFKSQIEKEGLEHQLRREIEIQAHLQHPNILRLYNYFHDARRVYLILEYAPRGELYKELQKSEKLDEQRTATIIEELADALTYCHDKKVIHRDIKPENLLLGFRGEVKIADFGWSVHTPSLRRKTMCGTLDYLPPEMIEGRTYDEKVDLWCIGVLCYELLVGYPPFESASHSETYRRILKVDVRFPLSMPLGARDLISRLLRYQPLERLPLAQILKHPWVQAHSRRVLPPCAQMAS

CDK2 = CDK2 (Homo sapiens, UniProt P24941); assay: In vitro protein kinase inhibition, CDK2
VEGFR2 = VEGFR2 (Homo sapiens, UniProt P35968); assay: In vitro protein kinase inhibition, VEGFR2; format: biochemical; conditions: mean ± SD of triplicate
Text: […]. […] […].

HDAC1 = HDAC1 (Homo sapiens, UniProt Q13547); assay: In vitro enzyme inhibition, HDAC1; format: biochemical; conditions: mean ± SD of triplicate; read-out: In Vitro Protein Kinase Inhibition IC50 HDAC1
mTOR = mTOR (Homo sapiens, UniProt P42345); assay: In vitro enzyme inhibition, mTOR
EGFR = EGFR (Homo sapiens, UniProt P00533); assay: In vitro protein kinase inhibition, EGFR
Her2 = Her2 (Homo sapiens, UniProt P04626); assay: In vitro protein kinase inhibition, Her2
Sequence of Her2 (P04626 23-1255): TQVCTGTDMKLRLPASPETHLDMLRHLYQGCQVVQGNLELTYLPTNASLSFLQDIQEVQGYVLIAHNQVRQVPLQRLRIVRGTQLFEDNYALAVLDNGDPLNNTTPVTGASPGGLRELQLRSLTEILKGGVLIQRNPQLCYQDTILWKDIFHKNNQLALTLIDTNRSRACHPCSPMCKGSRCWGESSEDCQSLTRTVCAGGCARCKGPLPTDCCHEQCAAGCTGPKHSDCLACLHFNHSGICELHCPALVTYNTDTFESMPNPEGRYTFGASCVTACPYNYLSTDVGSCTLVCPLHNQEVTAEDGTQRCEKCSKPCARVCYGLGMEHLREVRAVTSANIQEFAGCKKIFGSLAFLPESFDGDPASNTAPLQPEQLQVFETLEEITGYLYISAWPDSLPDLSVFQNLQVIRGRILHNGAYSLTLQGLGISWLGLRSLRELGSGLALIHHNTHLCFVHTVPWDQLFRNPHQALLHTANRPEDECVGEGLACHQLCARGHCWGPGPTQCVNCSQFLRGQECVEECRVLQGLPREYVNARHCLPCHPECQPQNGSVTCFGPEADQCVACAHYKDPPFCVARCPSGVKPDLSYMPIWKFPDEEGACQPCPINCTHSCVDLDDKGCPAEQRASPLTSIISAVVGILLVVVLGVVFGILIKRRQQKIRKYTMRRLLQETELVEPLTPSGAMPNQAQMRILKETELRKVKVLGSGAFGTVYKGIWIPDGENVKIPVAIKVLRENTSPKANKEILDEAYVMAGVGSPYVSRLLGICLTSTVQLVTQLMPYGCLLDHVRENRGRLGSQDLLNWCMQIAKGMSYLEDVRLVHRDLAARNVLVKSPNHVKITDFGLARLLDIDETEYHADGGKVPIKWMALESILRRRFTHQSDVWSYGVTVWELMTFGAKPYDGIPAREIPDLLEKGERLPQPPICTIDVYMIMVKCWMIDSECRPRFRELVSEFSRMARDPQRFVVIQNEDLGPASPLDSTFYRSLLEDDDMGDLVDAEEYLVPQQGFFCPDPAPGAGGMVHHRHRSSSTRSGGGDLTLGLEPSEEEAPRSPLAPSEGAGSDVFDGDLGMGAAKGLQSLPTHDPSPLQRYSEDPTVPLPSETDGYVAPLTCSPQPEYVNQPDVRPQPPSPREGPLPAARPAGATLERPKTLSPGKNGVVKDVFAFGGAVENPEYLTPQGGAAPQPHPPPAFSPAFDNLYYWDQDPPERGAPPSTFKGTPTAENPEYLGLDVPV

Sequence of VEGFR2 (P35968 20-1356): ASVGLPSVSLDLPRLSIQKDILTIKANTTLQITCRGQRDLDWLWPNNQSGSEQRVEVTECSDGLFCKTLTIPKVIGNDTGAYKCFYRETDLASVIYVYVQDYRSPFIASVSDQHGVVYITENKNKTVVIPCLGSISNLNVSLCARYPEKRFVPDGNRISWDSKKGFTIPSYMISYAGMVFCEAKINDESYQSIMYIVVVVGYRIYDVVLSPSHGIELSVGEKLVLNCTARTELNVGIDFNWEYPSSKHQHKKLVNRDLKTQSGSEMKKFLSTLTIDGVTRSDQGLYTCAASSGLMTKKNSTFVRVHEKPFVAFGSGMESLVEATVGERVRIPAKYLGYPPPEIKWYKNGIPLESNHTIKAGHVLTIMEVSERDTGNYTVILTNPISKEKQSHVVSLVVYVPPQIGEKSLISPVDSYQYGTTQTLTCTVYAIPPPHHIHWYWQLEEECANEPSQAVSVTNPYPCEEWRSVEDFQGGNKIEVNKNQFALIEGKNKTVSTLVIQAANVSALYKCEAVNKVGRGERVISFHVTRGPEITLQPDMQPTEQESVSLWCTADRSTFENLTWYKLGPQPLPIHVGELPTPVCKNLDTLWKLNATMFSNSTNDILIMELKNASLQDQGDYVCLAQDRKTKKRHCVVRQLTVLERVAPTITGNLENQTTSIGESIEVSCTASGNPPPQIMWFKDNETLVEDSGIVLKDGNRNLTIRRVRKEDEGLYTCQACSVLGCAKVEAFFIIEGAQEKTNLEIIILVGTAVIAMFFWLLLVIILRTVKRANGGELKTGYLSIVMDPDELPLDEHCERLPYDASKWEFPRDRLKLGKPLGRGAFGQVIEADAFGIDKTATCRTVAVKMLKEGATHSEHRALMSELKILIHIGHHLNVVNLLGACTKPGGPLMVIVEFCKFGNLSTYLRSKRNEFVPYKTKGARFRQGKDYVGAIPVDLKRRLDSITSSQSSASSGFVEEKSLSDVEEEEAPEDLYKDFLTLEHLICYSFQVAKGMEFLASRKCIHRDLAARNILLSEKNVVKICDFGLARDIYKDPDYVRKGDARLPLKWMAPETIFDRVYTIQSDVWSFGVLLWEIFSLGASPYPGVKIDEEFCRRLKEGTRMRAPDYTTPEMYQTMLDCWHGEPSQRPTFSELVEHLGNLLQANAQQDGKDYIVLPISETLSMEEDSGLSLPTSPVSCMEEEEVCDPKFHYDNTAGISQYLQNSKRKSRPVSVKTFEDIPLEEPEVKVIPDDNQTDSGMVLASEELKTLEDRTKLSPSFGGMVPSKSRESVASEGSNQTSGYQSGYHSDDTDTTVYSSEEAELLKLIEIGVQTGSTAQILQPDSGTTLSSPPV
Sequence of HDAC1 (Q13547 whole entry): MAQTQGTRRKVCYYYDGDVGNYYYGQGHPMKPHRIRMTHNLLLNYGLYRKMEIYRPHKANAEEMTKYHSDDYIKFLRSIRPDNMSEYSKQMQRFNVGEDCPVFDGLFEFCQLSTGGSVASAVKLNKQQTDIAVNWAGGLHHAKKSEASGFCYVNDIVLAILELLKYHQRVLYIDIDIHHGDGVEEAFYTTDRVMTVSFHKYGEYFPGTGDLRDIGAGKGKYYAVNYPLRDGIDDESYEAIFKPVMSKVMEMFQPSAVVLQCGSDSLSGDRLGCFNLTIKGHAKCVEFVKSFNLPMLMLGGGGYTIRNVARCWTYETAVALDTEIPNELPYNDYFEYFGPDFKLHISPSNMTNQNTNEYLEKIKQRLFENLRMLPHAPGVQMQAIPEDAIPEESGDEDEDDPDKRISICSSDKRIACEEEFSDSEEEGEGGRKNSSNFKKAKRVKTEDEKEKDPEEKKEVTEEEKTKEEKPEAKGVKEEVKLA
Sequence of EGFR (P00533 25-1210): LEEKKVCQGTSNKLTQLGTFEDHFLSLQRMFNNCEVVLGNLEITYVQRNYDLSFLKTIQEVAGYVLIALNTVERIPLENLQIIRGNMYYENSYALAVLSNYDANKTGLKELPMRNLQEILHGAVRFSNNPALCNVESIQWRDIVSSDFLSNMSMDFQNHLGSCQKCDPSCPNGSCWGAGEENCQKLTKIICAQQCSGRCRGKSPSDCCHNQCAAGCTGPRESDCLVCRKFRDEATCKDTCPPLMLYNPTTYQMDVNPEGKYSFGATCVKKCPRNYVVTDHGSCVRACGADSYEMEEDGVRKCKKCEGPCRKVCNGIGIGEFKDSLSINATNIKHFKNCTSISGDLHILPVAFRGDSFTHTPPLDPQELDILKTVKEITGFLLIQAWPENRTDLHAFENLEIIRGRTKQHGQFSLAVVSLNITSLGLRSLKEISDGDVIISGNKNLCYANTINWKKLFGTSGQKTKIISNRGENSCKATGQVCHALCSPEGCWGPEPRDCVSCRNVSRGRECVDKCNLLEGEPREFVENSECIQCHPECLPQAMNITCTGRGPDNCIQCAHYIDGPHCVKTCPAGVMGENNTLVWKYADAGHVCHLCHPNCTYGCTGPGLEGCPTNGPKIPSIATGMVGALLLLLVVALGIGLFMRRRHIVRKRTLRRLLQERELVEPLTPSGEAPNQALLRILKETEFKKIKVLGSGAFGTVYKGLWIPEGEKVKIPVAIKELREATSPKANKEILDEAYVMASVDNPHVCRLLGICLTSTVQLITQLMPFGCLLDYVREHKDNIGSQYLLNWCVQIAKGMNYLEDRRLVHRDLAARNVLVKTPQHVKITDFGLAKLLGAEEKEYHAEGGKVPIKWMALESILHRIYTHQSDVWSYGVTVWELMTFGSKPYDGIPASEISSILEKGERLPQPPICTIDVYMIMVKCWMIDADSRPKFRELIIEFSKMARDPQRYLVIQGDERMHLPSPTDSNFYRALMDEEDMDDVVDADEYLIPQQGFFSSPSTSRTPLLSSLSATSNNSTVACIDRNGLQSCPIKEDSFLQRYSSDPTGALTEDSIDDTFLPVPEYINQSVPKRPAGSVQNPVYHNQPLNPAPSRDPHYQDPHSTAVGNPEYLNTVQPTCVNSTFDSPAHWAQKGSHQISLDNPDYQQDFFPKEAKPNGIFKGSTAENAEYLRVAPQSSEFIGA

melting point	Compound	IC50 [1]	IC50 [2]	IC50 [3]	IC50 [4]	SI (Selectivity Index) HepG2 [1]	IC50 [5]	SI (Selectivity Index) HCT-116 [2]	SI (Selectivity Index) MCF-7 [3]	other results
–	CN[C@@H]1C[C@H]2O[C@@](C)([C@@H]1OC)n1c3ccccc3c3c4c(c5c6ccccc6n2c5c31)C(=O)NC4 [Saurosporine, staurosporine, reference compound]	–	–	–	–	–	–	–	–	Protein Expression Bax (Bax; ELISA, control 71.075 ± 2.762, mean ± SD of triplicate): 386.743 ± 15.03 pg/mL; Protein Expression Bax (Folds) (Bax; relative to control (1)): 5.44 Folds; Protein Expression Bcl-2 (Bcl-2): 3.336 ± 0.11 pg/mL; Protein Expression Caspase-3 (caspase-3; ELISA, control 99.904 ± 3.88, mean ± SD of triplicate): 541.162 ± 21.02 pg/mL; Protein Expression Caspase-3 (Folds) (caspase-3; relative to control (1)): 5.4 Folds
–	CCN(CC)CCNC(=O)c1c(C)[nH]c(/C=C2\C(=O)Nc3ccc(F)cc32)c1C [Sunitinib, reference compound]	8.38 ± 0.5 µM	17.9 ± 1.3 µM	24.1 ± 2 µM	55.6 ± 3.3 µM	–	–	–	–	–
160 °C	O=C(N/N=C/c1cc(F)ccc1F)c1ccc(NCc2nc3ccccc3[nH]2)cc1 [6l, (E)-4-(((1H-benzo[d]imidazol-2-yl)methyl)amino)-N′-(2,5-difluorobenzylidene)benzohydrazide]	20 ± 1.5 µM	39.8 ± 2.2 µM	29.8 ± 2 µM	77.6 ± 4.1 µM	3.88	> 20 µM	1.95	2.60	–
271 °C	O=C(N/N=C/c1cccc(Cl)c1)c1ccc(NCc2nc3ccccc3[nH]2)cc1 [6f, (E)-4-(((1H-benzo[d]imidazol-2-yl)methyl)amino)-N′-(3-chlorobenzylidene)benzohydrazide]	34.8 ± 2.1 µM	63.7 ± 3.5 µM	45.6 ± 2.5 µM	> 100 µM	–	> 20 µM	–	–	–
289 °C	O=C(N/N=C/c1ccccc1Cl)c1ccc(NCc2nc3ccccc3[nH]2)cc1 [6e, (E)-4-(((1H-benzo[d]imidazol-2-yl)methyl)amino)-N′-(2-chlorobenzylidene)benzohydrazide]	28.8 ± 1.7 µM	46.7 ± 2.7 µM	36.2 ± 2.3 µM	61.9 ± 3.5 µM	2.15	> 20 µM	1.33	1.71	–
278 °C	O=C(N/N=C/c1ccccc1)c1ccc(NCc2nc3ccccc3[nH]2)cc1 [6a, (E)-4-(((1H-benzo[d]imidazol-2-yl)methyl)amino)-N′-benzylidenebenzohydrazide]	31.8 ± 2.2 µM	24.6 ± 1.9 µM	26.3 ± 1.9 µM	72.6 ± 4 µM	2.29	> 20 µM	2.95	2.76	–
287 °C	O=C(N/N=C/c1ccc(Br)cc1)c1ccc(NCc2nc3ccccc3[nH]2)cc1 [6d, (E)-4-(((1H-benzo[d]imidazol-2-yl)methyl)amino)-N′-(4-bromobenzylidene)benzohydrazide]	17.8 ± 1.3 µM	30.3 ± 2.1 µM	25.2 ± 1.8 µM	54.3 ± 3.1 µM	3.05	< 30 µM	1.79	2.16	–
291 °C	O=C(N/N=C/c1ccc(F)cc1)c1ccc(NCc2nc3ccccc3[nH]2)cc1 [6j, (E)-4-(((1H-benzo[d]imidazol-2-yl)methyl)amino)-N′-(4-fluorobenzylidene)benzohydrazide]	14 ± 1.2 µM	18.7 ± 1.4 µM	8.31 ± 0.7 µM	39 ± 2.3 µM	2.78	< 30 µM	2.08	4.70	IC50 (AURKC): 0.5894 ± 2.2e-05 µM; IC50 (CDK2): 1.448 ± 6.2e-05 µM; IC50 (VEGFR2): 0.3072 ± 1.1e-05 µM; IC50 (HDAC1): 0.4733 ± 1.6e-05 µM; IC50 (mTOR): 1.305 ± 4.4e-05 µM; IC50 (EGFR): 0.1664 ± 8e-06 µM; IC50 (Her2): 0.2047 ± 9e-06 µM
290 °C	O=C(N/N=C/c1ccc(Cl)cc1)c1ccc(NCc2nc3ccccc3[nH]2)cc1 [6g, (E)-4-(((1H-benzo[d]imidazol-2-yl)methyl)amino)-N′-(4-chlorobenzylidene)benzohydrazide]	24.9 ± 1.7 µM	35.3 ± 2.3 µM	22.5 ± 1.6 µM	71.2 ± 3.5 µM	2.86	> 20 µM	2.02	3.16	–
289 °C	O=C(N/N=C/c1ccccc1F)c1ccc(NCc2nc3ccccc3[nH]2)cc1 [6h, (E)-4-(((1H-benzo[d]imidazol-2-yl)methyl)amino)-N′-(2-fluorobenzylidene)benzohydrazide]	12.9 ± 1 µM	21.5 ± 1.6 µM	16.3 ± 1.2 µM	93 ± 4.6 µM	7.19	< 30 µM	4.33	5.70	IC50 (AURKC): 0.011 ± 4e-06 µM; IC50 (CDK2): 0.284 ± 1.2e-05 µM; IC50 (VEGFR2): 0.1945 ± 7e-06 µM; IC50 (HDAC1): 0.1511 ± 5e-06 µM; IC50 (mTOR): 0.413 ± 1.4e-05 µM; IC50 (EGFR): 0.0732 ± 4e-06 µM; IC50 (Her2): 0.0232 ± 1e-06 µM
284 °C	O=C(N/N=C/c1ccccc1Br)c1ccc(NCc2nc3ccccc3[nH]2)cc1 [6b, (E)-4-(((1H-benzo[d]imidazol-2-yl)methyl)amino)-N′-(2-bromobenzylidene)benzohydrazide]	26.2 ± 1.9 µM	42.9 ± 2.5 µM	31.8 ± 2.1 µM	84.2 ± 4.3 µM	3.22	> 20 µM	1.96	2.64	–
278 °C	O=C(N/N=C/c1cccc(Br)c1)c1ccc(NCc2nc3ccccc3[nH]2)cc1 [6c, (E)-4-(((1H-benzo[d]imidazol-2-yl)methyl)amino)-N′-(3-bromobenzylidene)benzohydrazide]	8.9 ± 0.6 µM	10.2 ± 0.8 µM	7.82 ± 0.6 µM	48.2 ± 2.7 µM	5.41	7.82 to 10.2 µM	4.72	6.16	IC50 (AURKC): 0.0944 ± 3.6e-05 µM; IC50 (CDK2): 0.938 ± 3.9e-05 µM; IC50 (VEGFR2): 0.6045 ± 2.2e-05 µM; IC50 (HDAC1): 2.263 ± 7.7e-05 µM; IC50 (mTOR): 1.461 ± 5e-05 µM; IC50 (EGFR): 0.1252 ± 4.1e-05 µM; IC50 (Her2): 0.0556 ± 2.3e-05 µM
294 °C	O=C(N/N=C/c1ccc(Cl)cc1Cl)c1ccc(NCc2nc3ccccc3[nH]2)cc1 [6k, (E)-4-(((1H-benzo[d]imidazol-2-yl)methyl)amino)-N′-(2,4-dichlorobenzylidene)benzohydrazide]	44.8 ± 2.4 µM	67.8 ± 3.8 µM	48.6 ± 2.7 µM	> 100 µM	–	> 20 µM	–	–	–
